In brackets after ≈: the same amount, converted by molar mass.
Legend:
[1] = target: T1, RXRβ (Homo sapiens, UniProt P28702); assay: Ligand binding assay, RXRβ
T1 construct: made in house; host or cells: Baculovirus expression (insect cell extract)
T1 sequence (P28702 1-533): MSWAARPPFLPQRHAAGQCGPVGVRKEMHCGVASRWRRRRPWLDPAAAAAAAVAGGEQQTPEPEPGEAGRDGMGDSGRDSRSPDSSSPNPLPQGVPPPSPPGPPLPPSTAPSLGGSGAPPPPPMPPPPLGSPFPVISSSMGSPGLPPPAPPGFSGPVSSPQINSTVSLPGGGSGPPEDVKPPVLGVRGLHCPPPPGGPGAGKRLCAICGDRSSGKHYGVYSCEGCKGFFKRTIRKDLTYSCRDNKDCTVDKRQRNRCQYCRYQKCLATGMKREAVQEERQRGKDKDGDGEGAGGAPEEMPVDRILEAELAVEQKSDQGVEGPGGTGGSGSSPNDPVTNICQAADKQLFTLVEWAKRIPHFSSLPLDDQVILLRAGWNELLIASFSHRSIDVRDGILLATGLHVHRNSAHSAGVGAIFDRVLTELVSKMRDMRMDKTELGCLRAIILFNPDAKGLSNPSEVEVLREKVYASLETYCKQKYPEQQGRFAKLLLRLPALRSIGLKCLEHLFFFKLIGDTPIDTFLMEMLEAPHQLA
Protocol: (§1) All binding assays were performed in a similar fashion. All six receptor types were derived from the expressed receptor type (RARα, β, Γ and RXRα, β, Γ) expressed in Baculovirus. Stock solutions of all compounds were prepared as 10 mM ethanol solutions and serial dilutions carried out into 1:1 DMSO; ethanol. Assay buffers consisted of the following for all six receptor assays: 8% glycerol, 120 mM KCl 8 mM Tris, 5 mM CHAPS 4 mM DTT and 0.24 mM PMSF, pH-7.4@ room temperature.
(§2) All receptor binding assays were performed in the same manner. The final assay volume was 250 μl and contained from 10-40 μg of extract protein depending on receptor being assayed along with 5 nM of [^3H] all-trans retinoic acid or 10 nM [^3H] 9-cis retinoic acid and varying concentrations of competing ligand at concentrations that ranged from 0-10^−5 M. The assays were formatted for a 96 well minitube system. Incubations were carried out at 4° C. until equilibrium was achieved. Non-specific binding was defined as that binding remaining in the presence of 1000 nM of the appropriate unlabeled retinoic acid isomer. At the end of the incubation period, 50 μl of 6.25% hydroxyapitite was added in the appropriate wash buffer. The wash buffer consisted of 100 mM KCl, 10 mM Tris and either 5 mM CHAPS (RXRα, β, Γ) or 0.5% Triton X-100 (RARα, β, Γ). The mixture was vortexed and incubated for 10 minutes at 4° C., centrifuged and the supernatant removed. The hydroxyapitite was washed three more times with the appropriate wash buffer. The receptor-ligand complex was adsorbed by the hydroxyapitite. The amount of receptor-ligand complex was determined by liquid scintillation counting of hydroxyapitite pellet.
(§3) After correcting for non-specific binding, IC50 values were determined. […] The IC50 value was determined graphically from a loglogit plot of the data. The […] were determined by application of the Cheng-Prussof equation to the IC50 values, the labeled ligand concentration and the Kd of the labeled ligand.
(§4) The results of ligand binding assay are expressed in Kd numbers. (See Cheng et al. Biochemical Pharmacology Vol. 22 pp 3099-3108, expressly incorporated herein by reference.)

[2] = target: T2, RXRΓ (Homo sapiens, UniProt P48443); assay: Ligand binding assay, RXRΓ
T2 construct: made in house; host or cells: Baculovirus expression (insect cell extract)
T2 sequence (P48443 1-463): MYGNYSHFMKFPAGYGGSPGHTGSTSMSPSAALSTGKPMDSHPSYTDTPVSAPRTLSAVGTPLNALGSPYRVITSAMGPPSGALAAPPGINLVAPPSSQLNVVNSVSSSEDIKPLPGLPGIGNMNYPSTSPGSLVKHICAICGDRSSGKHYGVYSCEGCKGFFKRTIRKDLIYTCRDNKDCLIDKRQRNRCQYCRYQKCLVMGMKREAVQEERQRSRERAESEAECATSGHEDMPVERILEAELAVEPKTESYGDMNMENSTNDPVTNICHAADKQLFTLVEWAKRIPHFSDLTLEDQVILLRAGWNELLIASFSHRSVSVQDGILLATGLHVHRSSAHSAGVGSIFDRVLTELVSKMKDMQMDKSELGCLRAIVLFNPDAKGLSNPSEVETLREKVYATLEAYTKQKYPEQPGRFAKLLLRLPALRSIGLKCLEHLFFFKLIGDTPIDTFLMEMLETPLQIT
Protocol: as §1, §2, §3, §4

[3] = test system: limb bud mesenchymal cells; assay: Chondrogenesis suppression bioassay (teratogenic potency); format: cell-based; conditions: read-out: IC50 (50% inhibition of chondrogenesis); mouse limb bud spot cultures, 96 hours after plating; greater IC50 signifies lesser teratogenecity
Protocol: High-density “spot” cultures of limb bud mesenchymal cells are used to compare the ability of various concentrations of test drugs to suppress chondrogenic differentiation as a bioassay. Forelimb buds of mouse embryos on day 12 of gestation (54±2 somites) are dissociated in a trypsin-EDTA solution, and the resultant single-cell suspension is plated as 20-μl spots (200,000 cells/spot) on plastic culture dishes. Retinoid concentrations ranging from 0.3 ng/ml to 3 μg/ml (1 nM−10 μM) are added to the culture medium (Eagle's MEM±10% fetal bovine serum, GIBCO) 24 hours after initial plating. Control cultures receive only the vehicle (ethanol, concentration≦1% by vol); Retinoic acid is used as a positive control in another set of cultures.
The cultures are terminated 96 hours after plating, at which time the medium is removed and the cells are fixed for 1 hour in 10% formalin containing 0.5% cetylpyridinium chloride. The cultures are rinsed in acetic acid and stained for 1 hour in 0.5% Alcian blue solution at pH 1.0, differentiated in 3% acetic acid, and then dehydrated in ethanol and scored for chondrogenesis under the microscope. An absence or reduction in the number of cartilage nodules in stained cultures as compared with control cultures is taken as a measure of suppression of chondrogenesis. The number of cartilage nodules stained in the whole spot, mean number of nodules, and standard deviations are calculated for four replicate cultures per treatment. […] The IC50 values are expressed in nanogram per mililiter (ng/ml) units. An IC50 value of greater concentration in this assay signifies lesser teratogenecity.

[4] = Guinea pig osmotic pump toxicity experiment; format: in vivo; conditions: guinea pigs, intraperitoneal osmotic pump, 14 days; for depression of weight gain relative to control: FIG. 8
Protocol: In another experiment three-week old male Hartley guinea pigs were implanted intraperitonially with osmotic pumps containing 20% DMSO/80 polyethylene glycol (vehicle) or Compound 42 at concentrations of 4.4, 13.3 or 40 mg/ml in vehicle. Based on the initial body weights and known pumping rate, approximate doses of 0, 2, 6, and 18 mg/kg/day doses of Compound 42 are estimated. Body weights and clinical observations were recorded at least every other day for 14 days post-implantation. The guinea pigs were euthanized after 14 days, and the pumps were examined for possible failure.

Compound `CC(C)(C)c1cc(C(=O)Nc2ccc(C(=O)O)c(F)c2)cc(C(C)(C)C)n1` [Compound 42] has a Kd [1] greater than 1 µM, a Kd [2] greater than 1 µM and an IC50 [3] of 0.065 µg/mL (≈ 0.175 µM). The mucocutaneous toxicity ([4]; any dose (2, 6, 18 mg/kg/day)) was “no signs of mucocutaneous toxicity”, the “depression of weight gain relative to control” value ([4]; high dose (18 mg/kg/day)) was “Significant depression of weight gain” and the “depression of weight gain relative to control” value ([4]; lower and middle doses (approx. 2 and 6 mg/kg/day)) was “no, or only statistically insignificant depression of weight gain”.

From patent US6610744B2, “Methods of treatment with compounds having RARα receptor specific or selective activity” (Allergan, Inc., priority 1995, dated 2003)
